# From ChEMBL document CHEMBL4266017, “Colony-wise Analysis of a Theonella swinhoei Marine Sponge with a Yellow Interior Permitted the Isolation of Theonellamide I” (J Nat Prod, 2018)
# Tested on: HeLa
# Experiment: Cytotoxicity against human HeLa cells assessed as decrease in cell viability after 72 hrs by XTT assay
# Assay type: functional, cell-based
smiles,measurement,value
CC(/C=C/c1ccccc1)=C\[C@H](O)[C@@H]1CC(=O)N[C@@H](CO)C(=O)N[C@H]2C[n+]3cc(n([C@@H]4OC[C@H](O)[C@H](O)[C@H]4O)c3)C[C@H](NC(=O)CCC[C@@H](C(=O)[O-])NC(=O)[C@@H](O)CNC(=O)[C@H](Cc3ccc(Br)cc3)NC(=O)[C@H]([C@@H](O)C(N)=O)NC(=O)[C@H](CC(N)=O)NC2=O)C(=O)N[C@@H]([C@H](C)O)C(=O)N[C@@H](CO)C(=O)N[C@@H](Cc2ccccc2)C(=O)N1,IC50,1900 nM
